According to patent publication US8183239B2, “Substituted piperazines and piperidines as modulators of the neuropeptide Y2 receptor” (Janssen Pharmaceutica NV, priority 2005, dated 2012):

Target: T1, Y2 receptors (Homo sapiens, UniProt P49146)
T1 construct: endogenous in cells; host or cells: KAN-Ts cells (membranes)
T1 sequence (P49146 1-381): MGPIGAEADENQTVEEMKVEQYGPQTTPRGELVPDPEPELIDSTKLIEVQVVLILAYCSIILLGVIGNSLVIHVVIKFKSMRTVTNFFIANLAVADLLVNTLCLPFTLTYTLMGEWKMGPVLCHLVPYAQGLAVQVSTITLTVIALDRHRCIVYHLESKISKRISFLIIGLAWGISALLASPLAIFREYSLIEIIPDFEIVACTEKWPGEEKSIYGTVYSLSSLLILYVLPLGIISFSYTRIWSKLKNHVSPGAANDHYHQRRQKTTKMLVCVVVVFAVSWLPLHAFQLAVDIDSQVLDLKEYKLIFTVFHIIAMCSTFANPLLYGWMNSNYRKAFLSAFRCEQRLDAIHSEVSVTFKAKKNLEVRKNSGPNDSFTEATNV
Experiment: Radioligand binding assay ([125I]PYY, KAN-Ts cell membranes)
Conditions: Table 2, [125I]PYY 80 pM, average of results, read-out: IC50
Summary of the method: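 Membranes from KAN-Ts cells endogenously expressing Y2 incubated 1 h at rt with 80 pM [^125I]PYY ± test compound in HEPES buffer with NaCl, Ca^2+ and Mg^2+. Bound radioactivity collected by filtration; specific binding defined with […]. IC50 from sigmoidal fit, averaged over 3-8 duplicate experiments.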

| IC50 [nM] | Structure (SMILES) |
| --- | --- |
| 1100 | CCCS(=O)(=O)Nc1ccc(N2CCN(C(C(=O)N(CC)CC)c3ccccc3)CC2)c(F)c1 (stereo not shown) [Example 165, N,N-Diethyl-2-{4-[2-fluoro-4-(propane-1-sulfonylamino)-phenyl]-piperazin-1-yl}-2-phenyl-acetamide] |
| 560 | CCCS(=O)(=O)N(c1ccc(N2CCN(C(C(=O)N(CC)CC)c3ccccc3)CC2)c(F)c1)S(=O)(=O)CCC (stereo not shown) [Example 166, N-{4-[4-(Diethylcarbamoyl-phenyl-methyl)-piperazin-1-yl]-3-fluoro-phenyl}-N-dipropanesulfonanilide] |
| 3300 | CCN(CC)C(=O)C(c1ccccc1)N1CCN(c2ccc(C(=O)C3CCCC3)cc2F)CC1 (stereo not shown) [Example 167, 2-[4-(4-Cyclopentanecarbonyl-2-fluoro-phenyl)-piperazin-1-yl]-N,N-diethyl-2-phenyl-acetamide] |
| 740 | CCN(CC)C(=O)C(c1ccccc1)N1CCN(c2ccc(/C(=N/O)C3CCCC3)cc2F)CC1 (stereo not shown) [Example 168, 2-{4-[4-(Cyclopentyl-hydroxyimino-methyl)-2-fluoro-phenyl]-piperazin-1-yl}-N,N-diethyl-2-phenyl-acetamide] |
| 410 | CCC(C)C(=O)c1ccc(N2CCN(C(C(=O)N(CC)CC)c3ccccc3)CC2)c(F)c1 (stereo not shown) [Example 169, N,N-Diethyl-2-{4-[2-fluoro-4-(2-methyl-butyryl)-phenyl]-piperazin-1-yl}-2-phenyl-acetamide] |
| 260 | CCC(CC)C(=O)NCc1ccc(N2CCN(C(C(=O)N(CC)CC)c3ccccc3)CC2)c(F)c1 (stereo not shown) [Example 170, N-{4-[4-(Diethylcarbamoyl-phenyl-methyl)-piperazin-1-yl]-3-fluoro-benzyl}-2-ethyl-butyramide] |
| 270 | CCOC(=O)C(c1ccccc1)N1CCN(c2ccc(N3CCN(C(CC)CC)S3(=O)=O)cc2F)CC1 (stereo not shown) [Example 171, {4-[2-Fluoro-4-(5-(3-pentyl)-1,2,5-thiadiazolidine-2-yl,1,1-dioxide)-phenyl]-piperazin-1-yl}-phenyl-acetic acid ethyl ester] |
| 520 | CCCNS(=O)(=O)N(CCC)c1ccc(N2CCN(C(C(=O)N(CC)CC)c3ccccc3)CC2)c(F)c1 (stereo not shown) [Example 172, 2-{4-[4-(1,3-Dipropyl-sulfamoyl)-2-fluoro-phenyl]-piperazin-1-yl}-N,N-diethyl-2-phenyl-acetamide] |
| 590 | CCN(CC)C(=O)C(c1ccccc1)N1CCN(c2ccc(N3CCN(C(=O)OC)S3(=O)=O)cc2F)CC1 (stereo not shown) [Example 173, 3-{4-[4-(Diethylcarbamoyl-phenyl-methyl)-piperazin-1-yl]-3-fluoro-phenyl}-1,2,5-thiadiazolidine, 1,1-dioxide-2-carboxylic acid methyl ester] |
| 4000 | CCN(CC)C(=O)C(c1ccccc1)N1CCN(c2ccc(N3CCNS3(=O)=O)cc2F)CC1 (stereo not shown) [Example 174, N,N-Diethyl-2-{4-[2-fluoro-4-(1,2,5-thiadiazolidine-2-yl,1,1-dioxide)-phenyl]-piperazin-1-yl}-2-phenyl-acetamide] |
| ≥ 10000 | CCOC(=O)C(c1ccccc1)N1CCN(c2ccc(N3CCN(C(=O)OC)S3(=O)=O)cc2F)CC1 (stereo not shown) [Example 175, 3-{4-[4-(Ethoxycarbonyl-phenyl-methyl)-piperazin-1-yl]-3-fluoro-phenyl}-1,2,5-thiadiazolidine, 1,1-dioxide-2-carboxylic acid methyl ester] |
| ≥ 10000 | CCOC(=O)C(c1ccccc1)N1CCN(c2ccc(N3CCNS3(=O)=O)cc2F)CC1 (stereo not shown) [Example 176, {4-[2-Fluoro-4-(1,2,5-Thiadiazolidine-2-yl,1,1-dioxide)-phenyl]-piperazin-1-yl}-phenyl-acetic acid ethyl ester] |
| ≥ 10000 | CCOC(=O)C(c1ccccc1)N1CCN(c2ccc(N3CCN(C4CCN(CC)C4)S3(=O)=O)cc2F)CC1 (stereo not shown) [Example 177, {4-[2-Fluoro-4-(5-(1-Ethyl-pyrrolidin-3-yl)-1,2,5-thiadiazolidine-2-yl, 1,1-dioxide)-phenyl]-piperazin-1-yl}-phenyl-acetic acid ethyl ester] |
| 2900 | CCOC(=O)C(c1ccccc1)N1CCN(c2ccc(N3CCN(C4CCOC4)S3(=O)=O)cc2F)CC1 (stereo not shown) [Example 178, {4-[2-Fluoro-4-(5-(tetrahydro-furan-3-yl)-1,2,5-thiadiazolidine-2-yl, 1,1-dioxide)-phenyl]-piperazin-1-yl}-phenyl-acetic acid ethyl ester] |
| 540 | CCCN1CCN(c2ccc(N3CCN(C(C(=O)OCC)c4ccccc4)CC3)c(F)c2)S1(=O)=O (stereo not shown) [Example 179, {4-[2-Fluoro-4-(5-propyl-1,2,5-thiadiazolidine-2-yl,1,1-dioxide)-phenyl]-piperazin-1-yl}-phenyl-acetic acid ethyl ester] |
| 770 | CCOC(=O)C(c1ccccc1)N1CCN(c2ccc(N3CCN(C4CCCC4)S3(=O)=O)cc2F)CC1 (stereo not shown) [Example 180, {4-[2-Fluoro-4-(5-cyclopentyl-1,2,5-thiadiazolidine-2-yl,1,1-dioxide)-phenyl]-piperazin-1-yl}-phenyl-acetic acid ethyl ester] |
| 1650 | CCC(CC)C(=O)Nc1cnc(N2CCN(C(C(=O)N(CC)CC)c3ccccc3)CC2)nc1 (stereo not shown) [Example 182, N-{2-[4-(Diethylcarbamoyl-phenyl-methyl)-piperazin-1-yl]-pyrimidin-5-yl}-2-ethyl-butyramide] |
| 4500 | CCC(CC)C(=O)Nc1ccc(N2CCN(C(C(=O)N(CC)CC)c3ccccc3)CC2)nn1 (stereo not shown) [Example 183, N-{6-[4-(Diethylcarbamoyl-phenyl-methyl)-piperazin-1-yl]-pyridazin-3-yl}-2-ethyl-butyramide] |
| 870 | CCC(CC)C(=O)Nc1ccc(N2CCN(C(C(=O)NN)c3ccccc3)CC2)c(F)c1 (stereo not shown) [Example 184, 2-Ethyl-N-{3-fluoro-4-[4-(hydrazinocarbonyl-phenyl-methyl)-piperazin-1-yl]-phenyl}-butyramide] |
| 2400 | CCN(CC)C(=O)C(c1ccccc1)N1CCN(c2ccc(C(=O)OC)cc2F)CC1 (stereo not shown) [Example 185, 4-[4-(Diethylcarbamoyl-phenyl-methyl)-piperazin-1-yl]-3-fluoro-benzoic acid methyl ester] |
| 210 | CCN(CC)C(=O)C(c1ccccc1)C1CCN(c2ccc(NC(=O)c3ccnn3CC)cc2F)CC1 (stereo not shown) [Example 186, 2-Ethyl-2H-pyrazole-3-carboxylic acid {4-[4-(diethylcarbamoyl-phenyl-methyl)-piperidin-1-yl]-3-fluoro-phenyl}-amide] |
| 148 | CCN(CC)C(=O)C(c1ccccc1)C1CCN(c2ccc(NC(=O)c3cccn3CC)cc2F)CC1 (stereo not shown) [Example 187, 1-Ethyl-1H-pyrrole-2-carboxylic acid {4-[4-(diethylcarbamoyl-phenyl-methyl)-piperidin-1-yl]-3-fluoro-phenyl}-amide] |
| 200 | CCCCC(O)(c1ccccc1)C1CCN(c2ccc(NC(=O)C(CC)CC)cc2F)CC1 (stereo not shown) [Example 188, 2-Ethyl-N-{3-fluoro-4-[4-(1-hydroxy-1-phenyl-pentyl)-piperidin-1-yl]-phenyl}-butyramide] |
| ≥ 10000 | CCCCC(c1ccccc1)C1CCN(c2ccc(NC(=O)C(CC)CC)cc2F)CC1 (stereo not shown) [Example 189, 2-Ethyl-N-{3-fluoro-4-[4-(1-phenyl-pentyl)-piperidin-1-yl]-phenyl}-butyramide] |
| 5700 | CCC(CC)NC(=O)c1ccc(N2CCN(C(C(=O)N(CC)CC)c3ccccc3)CC2)c(F)c1 (stereo not shown) [Example 190, 4-[4-(Diethylcarbamoyl-phenyl-methyl)-piperazin-1-yl]-N-(1-ethyl-propyl)-3-fluoro-benzamide] |
| 380 | CCN(CC)C(=O)C(c1ccccc1)N1CCN(c2ccc(Nc3ccccn3)cc2F)CC1 (stereo not shown) [Example 191, N,N-Diethyl-2-{4-[2-fluoro-4-(pyridin-2-ylamino)-phenyl]-piperazin-1-yl}-2-phenyl-acetamide] |
| 5000 | CCN(CC)C(=O)C(c1ccccc1)N1CCN(c2ccc(Nc3ncccc3C)cc2F)CC1 (stereo not shown) [Example 192, N,N-Diethyl-2-{4-[2-fluoro-4-(3-methyl-pyridin-2-ylamino)-phenyl]-piperazin-1-yl}-2-phenyl-acetamide] |
| 140 | CCC(CC)C(=O)Nc1ccc(C2=CCN(C(C(=O)N(CC)CC)c3ccccc3)CC2)c(F)c1 (stereo not shown) [Example 193, N-{4-[1-(Diethylcarbamoyl-phenyl-methyl)-1,2,3,6-tetrahydro-pyridin-4-yl]-3-fluoro-phenyl}-2-ethyl-butyramide] |
| 100 | CCC(CC)C(=O)Nc1ccc(C2CCN(C(C(=O)N(CC)CC)c3ccccc3)CC2)c(F)c1 (stereo not shown) [Example 194, N-{4-[1-(Diethylcarbamoyl-phenyl-methyl)-piperidin-4-yl]-3-fluoro-phenyl}-2-ethyl-butyramide] |

| Structure (SMILES) | IC50 [nM] |
| --- | --- |
| CCN(CC)C(=O)C(c1ccccc1)N1CC=C(c2ccc(C(=O)OC)cc2F)CC1 (stereo not shown) [Example 181, 4-[1-(Diethylcarbamoyl-phenyl-methyl)-1,2,3,6-tetrahydro-pyridin-4-yl]-3-fluoro-benzoic acid methyl ester] | 9300 |
| CCC(CC)C(=O)Nc1ccc(N2CCN(C(C(=O)N(CC)CC)c3cccc(Cl)c3)CC2)c(F)c1 (stereo not shown) [Example 195, N-(4-{4-[(3-Chloro-phenyl)-diethylcarbamoyl-methyl]-piperazin-1-yl}-3-fluoro-phenyl)-2-ethyl-butyramide] | 50 |
